Where a SMILES comes first, the peptide text is derived from it. Bridges are numbered along the chain shown (N, C = ends). Side-chain parts run from the residue outwards. [ ]: non-standard residue; d: D form. The star is where a group is joined. DOTA = O=C(O)CN1CCN(CC(=O)O)CCN(CC(=O)*)CCN(CC(=O)O)CC1; Pro(cis-4-F) = O=C(O)[C@@H]1C[C@H](F)CN1; Dopa = N[C@@H](Cc1ccc(O)c(O)c1)C(=O)O; Hyp = O=C(O)[C@@H]1C[C@@H](O)CN1; hPhe = N[C@@H](CCc1ccccc1)C(=O)O; Pentanoyl(4-Me) = CC(C)CCC(=O)*; Cha = N[C@@H](CC1CCCCC1)C(=O)O; Cit = NC(=O)NCCC[C@H](N)C(=O)O; Butoxycarbonyl = CCCCOC(=O)*; NMeV = CN[C@H](C(=O)O)C(C)C; Pip = O=C(O)[C@@H]1CCCCN1; Dab = NCC[C@H](N)C(=O)O; Nva = CCC[C@H](N)C(=O)O; Dap = NC[C@H](N)C(=O)O; Hexanoyl = CCCCCC(=O)*; Pentanoyl = CCCCC(=O)*; Aib = CC(C)(N)C(=O)O; NEtG = CCNCC(=O)O
How the values were obtained:
[1] = target: T1, uPAR-expressing HEC-265 human endometrial adenocarcinoma cells (Homo sapiens, UniProt Q03405); experiment: Competitive FACS binding assay; details: pIC50 category of FACS binding
T1 construct: Cell surface uPAR-expressing HEC-265 human endometrial adenocarcinoma cells; host or cells: HEC-265
Procedure, shortened: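 Competitive displacement of a 10 nM biotinylated peptide from HEC-265 cells (1 h, 4 °C, PBS/1% BSA), detected via APC-streptavidin by flow cytometry. pIC50 from four-parameter logistic fit of median fluorescence versus concentration.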

human uPAR (uPAR-Fc) = target: T2, human uPAR (uPAR-Fc) (Homo sapiens, UniProt Q03405); experiment: Surface plasmon resonance (SPR) assay, single cycle kinetics; format: binding; details: pKD category for uPAR SPR activity assay; uPAR-Fc on Protein A-Chip, single cycle kinetics, 25°C; read-out: pKD CAT (converted)
T2 construct: comprising amino acids Leu23-Arg303 according to UniProt entry Q03405.1; purchased R&D Systems 10378-UK-100
Procedure, shortened: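 uPAR-Fc (Leu23-Arg303 extracellular domains, human IgG1 Fc) captured on Protein A chip to ~2000 RU; single-cycle kinetics at 25°C in HEPES running buffer pH 7.4 with 0.1% DMSO. KD from double-referenced sensorgrams fitted to 1:1 Langmuir model, reported as pKD.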

T2 sequence (Q03405 23-303): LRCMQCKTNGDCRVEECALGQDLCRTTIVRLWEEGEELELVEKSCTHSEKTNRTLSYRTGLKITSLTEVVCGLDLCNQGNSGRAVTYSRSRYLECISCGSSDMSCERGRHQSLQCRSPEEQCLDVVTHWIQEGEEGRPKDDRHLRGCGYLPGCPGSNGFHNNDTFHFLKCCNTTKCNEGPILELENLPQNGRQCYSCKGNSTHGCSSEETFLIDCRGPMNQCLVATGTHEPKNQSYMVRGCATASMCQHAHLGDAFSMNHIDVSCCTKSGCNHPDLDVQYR
T1 sequence (Q03405 23-335): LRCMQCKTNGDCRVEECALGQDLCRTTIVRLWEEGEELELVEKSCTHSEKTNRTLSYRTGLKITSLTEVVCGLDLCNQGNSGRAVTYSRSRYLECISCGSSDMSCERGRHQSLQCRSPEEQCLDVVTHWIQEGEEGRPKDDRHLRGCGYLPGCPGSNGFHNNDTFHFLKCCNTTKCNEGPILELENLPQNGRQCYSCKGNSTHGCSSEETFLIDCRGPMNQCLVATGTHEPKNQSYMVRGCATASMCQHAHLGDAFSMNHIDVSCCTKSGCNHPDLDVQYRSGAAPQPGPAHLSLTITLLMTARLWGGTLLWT

Structure (SMILES)	IC50 [1] [nM]	Kd (human uPAR (uPAR-Fc)) [nM]
CCCCOC(=O)N[C@H]1CSSC[C@@H](C(N)=O)NC(=O)[C@H](CCC)NC(=O)[C@H]([C@@H](C)CC)NC(=O)[C@@H]2C[C@@H](O)CN2C(=O)[C@@H]2C[C@H](F)CN2C(=O)[C@H](Cc2ccccc2)NC(=O)[C@H](Cc2ccc(O)cc2)NC(=O)[C@H](CNC(=O)CN2CCN(CC(=O)O)CCN(CC(=O)O)CCN(CC(=O)O)CC2)NC(=O)[C@H]([C@@H](C)O)NC1=O [UPAR-455, Butoc-[Cys-Thr-Dap(DOTA)-Tyr-Phe-4Cfp-Hyp-Ile-Nva-Cys]-NH2] (Butoxycarbonyl-CT[Dap](DOTA)YF[Pro(cis-4-F)][Hyp]I[Nva]C-NH2; disulfide 1-10)	≤ 10	< 1.58
CCCCOC(=O)N[C@H]1CSSC[C@@H](C(N)=O)NC(=O)[C@H](CCC)NC(=O)[C@H]([C@@H](C)CC)NC(=O)[C@@H]2C[C@@H](O)CN2C(=O)[C@@H]2C[C@H](F)CN2C(=O)[C@H](Cc2ccccc2)NC(=O)[C@H](Cc2ccc(O)c(O)c2)NC(=O)[C@H](CCNC(=O)CN2CCN(CC(=O)O)CCN(CC(=O)O)CCN(CC(=O)O)CC2)NC(=O)[C@H]([C@@H](C)O)NC1=O [UPAR-456, Butoc-[Cys-Thr-Dab(DOTA)-Dopa-Phe-4Cfp-Hyp-Ile-Nva-Cys]-NH2] (Butoxycarbonyl-CT[Dab](DOTA)[Dopa]F[Pro(cis-4-F)][Hyp]I[Nva]C-NH2; disulfide 1-10)	≤ 10	< 1.58
CCCCOC(=O)N[C@H]1CSSC[C@@H](C(N)=O)NC(=O)[C@H](CCC)NC(=O)[C@H]([C@@H](C)CC)NC(=O)[C@@H]2C[C@@H](O)CN2C(=O)[C@@H]2C[C@H](F)CN2C(=O)[C@H](Cc2ccccc2)NC(=O)[C@H](Cc2ccc(O)c(O)c2)NC(=O)[C@H](CCCCNC(=O)[C@@H](CC(=O)O)NC(=O)CN2CCN(CC(=O)O)CCN(CC(=O)O)CCN(CC(=O)O)CC2)NC(=O)[C@H]([C@@H](C)O)NC1=O [UPAR-459, Butoc-[Cys-Thr-Lys(DOTA-asp)-Dopa-Phe-4Cfp-Hyp-Ile-Nva-Cys]-NH2] (Butoxycarbonyl-CTK([dD-DOTA])[Dopa]F[Pro(cis-4-F)][Hyp]I[Nva]C-NH2; disulfide 1-10)	≤ 10	< 1.58
CCNCC(=O)N[C@H]1CSSC[C@@H](C(N)=O)NC(=O)[C@H](CC(C)C)NC(=O)[C@H]([C@@H](C)CC)NC(=O)[C@@H](C)NC(=O)[C@@H]2CCCN2C(=O)[C@H](Cc2ccccc2)NC(=O)[C@H](Cc2ccc(O)cc2)NC(=O)[C@H](CCC(N)=O)NC(=O)[C@H](CCCNC(N)=O)NC1=O [UPAR-462, H-NEtg-[Cys-Cit-Gln-Tyr-Phe-Pro-ala-Ile-Leu-Cys]-NH2] (H-[NEtG]C[Cit]QYFP[dA]ILC-NH2; disulfide 2-11)	39.8 to 100	10 to 100
CC[C@H](C)[C@@H]1NC(=O)[C@@H](C)NC(=O)[C@@H]2CCCN2C(=O)[C@H](Cc2ccccc2)NC(=O)[C@H](Cc2ccc(O)cc2)NC(=O)[C@H](CCC(N)=O)NC(=O)[C@@H](CCCNC(=N)N)NC(=O)[C@@H](NC(=O)CCC(C)C)CSSC[C@@H](C(N)=O)NC(=O)[C@H](CC(C)C)NC1=O [UPAR-467, iHex-[Cys-arg-Gln-Tyr-Phe-Pro-ala-Ile-Leu-Cys]-NH2] ({Pentanoyl(4-Me)}-C[dR]QYFP[dA]ILC-NH2; disulfide 1-10)	≥ 126	10 to 100
CC[C@H](C)[C@@H]1NC(=O)[C@@H]2CCCCN2C(=O)[C@@H]2CCCN2C(=O)[C@H](Cc2ccccc2)NC(=O)[C@H](Cc2ccc(O)cc2)NC(=O)[C@H](CCC(N)=O)NC(=O)[C@H](CCCNC(N)=O)NC(=O)[C@@H](NC(=O)CCC(C)C)CSSC[C@@H](C(N)=O)NC(=O)[C@H](CC(C)C)NC1=O [UPAR-469, iHex-[Cys-Cit-Gln-Tyr-Phe-Pro-Pip-Ile-Leu-Cys]-NH2] ({Pentanoyl(4-Me)}-C[Cit]QYFP[Pip]ILC-NH2; disulfide 1-10)	12.6 to 31.6	1.58 to 10
CCCCC(=O)N[C@H]1CSSC[C@@H](C(N)=O)NC(=O)[C@H](CCC)NC(=O)[C@H]([C@@H](C)CC)NC(=O)[C@@H]2C[C@@H](O)CN2C(=O)[C@H](C(C)C)N(C)C(=O)[C@H](Cc2ccccc2)NC(=O)[C@H](Cc2ccc(O)cc2)NC(=O)[C@H](CCC(N)=O)NC(=O)[C@H](CCCNC(=N)N)NC1=O [UPAR-470, Pent-[Cys-Arg-Gln-Tyr-Phe-Nmv-Hyp-Ile-Nva-Cys]-NH2] (Pentanoyl-CRQYF[NMeV][Hyp]I[Nva]C-NH2; disulfide 1-10)	≥ 126	> 100
CCCCC(=O)N[C@H]1CSSC[C@@H](C(N)=O)NC(=O)[C@H](CCC)NC(=O)[C@H]([C@@H](C)CC)NC(=O)[C@@H]2C[C@@H](O)CN2C(=O)[C@@H]2CCCN2C(=O)[C@H](Cc2ccccc2)NC(=O)[C@H](Cc2ccc(O)cc2)NC(=O)[C@H](CCCCNC(=O)CN2CCN(CC(=O)O)CCN(CC(=O)O)CCN(CC(=O)O)CC2)NC(=O)[C@H](CCC(=O)O)NC1=O [UPAR-471, Pent-[Cys-Glu-Lys(DOTA)-Tyr-Phe-Pro-Hyp-Ile-Nva-Cys]-NH2] (Pentanoyl-CEK(DOTA)YFP[Hyp]I[Nva]C-NH2; disulfide 1-10)	≤ 10	< 1.58
CCCCC(=O)N[C@H]1CSSC[C@@H](C(N)=O)NC(=O)[C@H](CCC)NC(=O)[C@H]([C@@H](C)CC)NC(=O)[C@@H]2CCCN2C(=O)[C@@H]2CCCN2C(=O)[C@H](Cc2ccccc2)NC(=O)[C@H](Cc2ccc(O)cc2)NC(=O)[C@H](CCCCNC(=O)CN2CCN(CC(=O)O)CCN(CC(=O)O)CCN(CC(=O)O)CC2)NC(=O)[C@H](CCCNC(N)=O)NC1=O [UPAR-473, Pent-[Cys-Cit-Lys(DOTA)-Tyr-Phe-Pro-Pro-Ile-Nva-Cys]-NH2] (Pentanoyl-C[Cit]K(DOTA)YFPPI[Nva]C-NH2; disulfide 1-10)	≤ 10	< 1.58
CC[C@H](C)[C@@H]1NC(=O)[C@@H](C)NC(=O)[C@@H]2CCCN2C(=O)[C@H](Cc2ccccc2)NC(=O)[C@H](Cc2ccc(O)cc2)NC(=O)[C@H](CCC(N)=O)NC(=O)[C@H](CCCNC(N)=O)NC(=O)[C@@H](NC(=O)CCC(C)C)CSSC[C@@H](C(N)=O)NC(=O)[C@H](CC2CCCCC2)NC1=O [UPAR-474, iHex-[Cys-Cit-Gln-Tyr-Phe-Pro-ala-Ile-Cha-Cys]-NH2] ({Pentanoyl(4-Me)}-C[Cit]QYFP[dA]I[Cha]C-NH2; disulfide 1-10)	≥ 126	> 100
CCCCCC(=O)N[C@H]1CSSC[C@@H](C(N)=O)NC(=O)[C@H](CC(C)C)NC(=O)[C@H]([C@@H](C)CC)NC(=O)[C@@H](C)NC(=O)[C@@H]2CCCN2C(=O)[C@H](Cc2ccccc2)NC(=O)[C@H](Cc2ccc(O)cc2)NC(=O)[C@H](CCC(N)=O)NC(=O)[C@H](CCCNC(N)=O)NC1=O [UPAR-475, Hex-[Cys-Cit-Gln-Tyr-Phe-Pro-ala-Ile-Leu-Cys]-NH2] (Hexanoyl-C[Cit]QYFP[dA]ILC-NH2; disulfide 1-10)	≤ 10	< 1.58

Further lines, results first:

IC50 [1] [nM]	Kd (human uPAR (uPAR-Fc)) [nM]	Structure (SMILES)
≤ 10	< 1.58	CCCCC(=O)N[C@H]1CSSC[C@@H](C(N)=O)NC(=O)[C@H](CCC)NC(=O)[C@H]([C@@H](C)CC)NC(=O)[C@@H]2C[C@@H](O)CN2C(=O)[C@@H]2CCCN2C(=O)[C@H](Cc2ccccc2)NC(=O)[C@H](Cc2ccc(O)cc2)NC(=O)[C@H](CCC(N)=O)NC(=O)[C@H](Cc2ccc(O)cc2)NC1=O [UPAR-454, Pent-[Cys-Tyr-Gln-Tyr-Phe-Pro-Hyp-Ile-Nva-Cys]-NH2] (Pentanoyl-CYQYFP[Hyp]I[Nva]C-NH2; disulfide 1-10)
≤ 10	< 1.58	CC[C@H](C)[C@@H]1NC(=O)[C@@H]2C[C@@H](O)CN2C(=O)[C@@H]2CCCN2C(=O)[C@H](Cc2ccccc2)NC(=O)[C@H](Cc2ccc(O)cc2)NC(=O)[C@H](CC(=O)O)NC(=O)[C@H](CCCNC(=N)N)NC(=O)[C@@H](NC(=O)CCC(C)C)CSSC[C@@H](C(N)=O)NC(=O)[C@H](CC(C)C)NC1=O [UPAR-458, iHex-[Cys-Arg-Asp-Tyr-Phe-Pro-Hyp-Ile-Leu-Cys]-NHz] ({Pentanoyl(4-Me)}-CRDYFP[Hyp]ILC-NH2; disulfide 1-10)
≤ 10	< 1.58	CCCCC(=O)N[C@H]1CSSC[C@@H](C(N)=O)NC(=O)[C@H](CCC)NC(=O)[C@H](CCc2ccccc2)NC(=O)[C@@H]2C[C@@H](O)CN2C(=O)[C@@H]2CCCN2C(=O)[C@H](Cc2ccccc2)NC(=O)[C@H](Cc2ccc(O)cc2)NC(=O)[C@H](CCC(N)=O)NC(=O)[C@H](CCCNC(=N)N)NC1=O [UPAR-461, Pent-[Cys-Arg-Gln-Tyr-Phe-Pro-Hyp-Hfe-Nva-Cys]-NH2] (Pentanoyl-CRQYFP[Hyp][hPhe][Nva]C-NH2; disulfide 1-10)
≤ 10	< 1.58	CCCCC(=O)N[C@H]1CSSC[C@@H](C(N)=O)NC(=O)[C@H](CCC)NC(=O)[C@H]([C@@H](C)CC)NC(=O)[C@@H](Cc2ccc(O)cc2)NC(=O)[C@@H]2CCCN2C(=O)[C@H](Cc2ccccc2)NC(=O)[C@H](Cc2ccc(O)cc2)NC(=O)[C@H](CCC(N)=O)NC(=O)[C@H](CCCNC(=N)N)NC1=O [UPAR-465, Pent-[Cys-Arg-Gln-Tyr-Phe-Pro-tyr-Ile-Nva-Cys]-NH2] (Pentanoyl-CRQYFP[dY]I[Nva]C-NH2; disulfide 1-10)
≤ 10	1.58 to 10	CC[C@H](C)[C@@H]1NC(=O)[C@@H](C)NC(=O)[C@@H]2CCCN2C(=O)[C@H](Cc2ccccc2)NC(=O)[C@H](Cc2ccc(O)cc2)NC(=O)[C@H](CCC(N)=O)NC(=O)C(C)(C)NC(=O)[C@@H](NC(=O)CCC(C)C)CSSC[C@@H](C(N)=O)NC(=O)[C@H](CC(C)C)NC1=O [UPAR-468, iHex-[Cys-Aib-Gln-Tyr-Phe-Pro-ala-Ile-Leu-Cys]-NH2] ({Pentanoyl(4-Me)}-C[Aib]QYFP[dA]ILC-NH2; disulfide 1-10)

— patent EP4610269A1, “UROKINASE PLASMINOGEN ACTIVATOR SURFACE RECEPTOR (UPAR) LIGANDS FOR DIAGNOSTIC OR THERAPEUTIC USE” (3B Pharmaceuticals GmbH, priority 2024, dated 2025)
